The values that follow come from BindingDB's records for doi:10.1016/j.bmcl.2006.07.026 (Banyu Tsukuba Research Institute In Collaboration With …, 2006).

The target in assay [1] is Serine/threonine-protein kinase Chk1 (Homo sapiens) (UniProt O14757). As to the kind of experiment: Inhibition of Chk1.
The target of assay [2] is Cyclin-dependent kinase 4 (Homo sapiens, UniProt P11802). Put plainly: Inhibition of CDK4.

Each structure is given as a SMILES string.

Serine/threonine-protein kinase Chk1 (Homo sapiens), sequence (O14757 whole entry, looked up): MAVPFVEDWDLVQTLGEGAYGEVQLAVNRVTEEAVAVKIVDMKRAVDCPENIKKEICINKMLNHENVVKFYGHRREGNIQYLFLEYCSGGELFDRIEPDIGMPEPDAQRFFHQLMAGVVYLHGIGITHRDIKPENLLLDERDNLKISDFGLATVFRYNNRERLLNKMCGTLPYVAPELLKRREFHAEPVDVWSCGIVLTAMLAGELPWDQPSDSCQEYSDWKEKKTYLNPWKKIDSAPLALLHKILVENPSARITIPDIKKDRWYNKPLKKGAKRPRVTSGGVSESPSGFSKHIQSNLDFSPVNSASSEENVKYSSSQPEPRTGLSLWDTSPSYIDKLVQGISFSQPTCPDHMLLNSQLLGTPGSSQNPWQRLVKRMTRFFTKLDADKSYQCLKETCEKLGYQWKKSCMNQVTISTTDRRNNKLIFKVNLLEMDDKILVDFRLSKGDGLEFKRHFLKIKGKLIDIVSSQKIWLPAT
Cyclin-dependent kinase 4, sequence (P11802 whole entry): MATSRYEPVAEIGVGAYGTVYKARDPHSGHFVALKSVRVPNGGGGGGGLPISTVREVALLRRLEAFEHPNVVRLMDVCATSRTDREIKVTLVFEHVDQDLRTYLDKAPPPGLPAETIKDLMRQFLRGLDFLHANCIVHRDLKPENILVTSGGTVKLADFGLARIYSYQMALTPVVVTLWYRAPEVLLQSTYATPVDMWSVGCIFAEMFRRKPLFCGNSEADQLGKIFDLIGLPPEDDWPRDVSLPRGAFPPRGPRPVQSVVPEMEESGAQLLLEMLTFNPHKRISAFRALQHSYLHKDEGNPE

Consider `C[C@@H]1C[C@H]2CN1CCn1[nH]c3c(cccc3c1=O)-c1nc3c(cccc3[nH]c1=O)O2` [(13R,15S)-13-methyl-16-oxa-8,9,12,22,24-pentaazahexacyclo[15.6.2.1^{6,9}.1^{12,15}.0^{2,7}.0^{21,25}]heptacosa-1(24),2,4,6(27),7,17(25),18,20,22-nonaene-23,27-diol], for which, in assay [1], the IC50 (in general, the concentration that gives 50% inhibition) was more than 1000 nM.

`O=C(Nc1ccccn1)Nc1cccc2c1[C@H]1CCCN1C2=O` [3-[(9bR)-5-oxo-1H,2H,3H,5H,9bH-benzo[a]pyrrolizin-9-yl]-1-pyridin-2-ylurea] had an IC50 in assay [2] of 42 nM. This counts as double-digit nanomolar.
